Assays:
[1] = system: B16F10, mouse melanoma cells; assay: Proliferation assay, B16F10 (crystal violet); format: cell-based; conditions: B16-F10, 96 h, B16F10, 4 days, read-out: Inhibition of B16F10 cell proliferation
Protocol: (§1) Cultivated tumour cells (HeLa, human cervical tumour cells, ATCC CCL-2; NCI-H460, human non-small cell lung carcinoma cells, ATCC HTB-177; A2780, human ovarian carcinoma cells, ECACC #93112519; DU 145, hormone-independent human prostate carcinoma cells, ATCC HTB-81; HeLa-MaTu-ADR, multidrug-resistant human cervical carcinoma cells, EPO-GmbH Berlin; Caco-2, human colorectal carcinoma cells, ATCC HTB-37; B16F10, mouse melanoma cells, ATCC CRL-6475) were plated at a density of 5,000 cells/well (DU145, HeLa-MaTu-ADR), 3,000 cells/well (NCI-H460, HeLa), 2,500 cells/well (A2780), 1,500 cells/well (Caco-2), or 1,000 cells/well (B16F10) in a 96-well multititer plate in 200 μL of their respective growth medium supplemented 10% fetal calf serum. After 24 hours, the cells of one plate (zero-point plate) were stained with crystal violet (see below), while the medium of the other plates was replaced by fresh culture medium (200 μl), to which the test substances were added in various concentrations (0 μM, as well as in the range of 0.001-10 μM; the final concentration of the solvent dimethyl sulfoxide was 0.5%). The cells were incubated for 4 days in the presence of test substances. Cell proliferation was determined by staining the cells with crystal violet: the cells were fixed by adding 20 μl/measuring point of an 11% glutaric aldehyde solution for 15 minutes at room temperature. After three washing cycles of the fixed cells with water, the plates were dried at room temperature. The cells were stained by adding 100 μl/measuring point of a 0.1% crystal violet solution (pH 3.0). After three washing cycles of the stained cells with water, the plates were dried at room temperature. The dye was dissolved by adding 100 μl/measuring point of a 10% acetic acid solution. The extinction was determined by photometry at a wavelength of 595 nm. The change of cell number, in percent, was calculated by normalization of the measured values to the extinction values of the zero-point plate (=0%) and the extinction of the untreated (0 μm) cells (=100%). The IC50 values (inhibitory concentration at 50% of maximal effect) were determined by means of a 4 parameter fit.

[2] = system: DU 145, hormone-independent human prostate carcinoma cells; assay: Proliferation assay, DU145 (crystal violet); format: cell-based; conditions: DU-145, 96 h, DU145, 4 days, read-out: Inhibition of DU145 cell proliferation
Protocol: as §1

[3] = system: NCI-H460, human non-small cell lung carcinoma cells; assay: Proliferation assay, NCI-H460 (crystal violet); format: cell-based; conditions: 96 h, NCI-H460, 4 days, read-out: Inhibition of NCI-H460 cell proliferation
Protocol: as §1

[4] = system: HeLa, human cervical tumour cells; assay: Proliferation assay, HeLa (crystal violet); format: cell-based; conditions: 96 h, 4 days, read-out: Inhibition of HeLa cell proliferation
Protocol: as §1

[5] = system: Caco-2, human colorectal carcinoma cells; assay: Proliferation assay, Caco-2 (crystal violet); format: cell-based; conditions: 96 h, Caco-2, 4 days, read-out: Inhibition of Caco-2 cell proliferation
Protocol: as §1

CDK2/CycE = target: T1, CDK2/CycE (Homo sapiens, UniProt P24941); assay: CDK2/CycE kinase assay (Method 2, TR-FRET); format: biochemical; conditions: Method 2, 10 μM ATP
T1 construct: GST; purchased ProQinase GmbH (Freiburg, Germany); host or cells: insect cells (Sf9)
Description: 2. CDK2/CycE Kinase Assay:
CDK2/CycE-inhibitory activity of compounds of the present invention was quantified employing the CDK2/CycE TR-FRET assay as described in the following paragraphs:
Recombinant fusion proteins of GST and human CDK2 and of GST and human CycE, expressed in insect cells (Sf9) and purified by Glutathion-Sepharose affinity chromatography, were purchased from ProQinase GmbH (Freiburg, Germany). As substrate for the kinase reaction biotinylated peptide biotin-Ttds-YISPLKSPYKISEG (C-terminus in amid form) was used which can be purchased e.g. form the company JERINI Peptide Technologies (Berlin, Germany).
For the assay 50 nl of a 100 fold concentrated solution of the test compound in DMSO was pipetted into a black low volume 384 well microtiter plate (Greiner Bio-One, Frickenhausen, Germany), 2 μl of a solution of CDK2/CycE in aqueous assay buffer [50 mM Tris/HCl pH 8.0, 10 mM MgCl2, 1.0 mM dithiothreitol, 0.1 mM sodium ortho-vanadate, 0.01% (v/v) Nonidet-P40 (Sigma)] were added and the mixture was incubated for 15 min at 22° C. to allow pre-binding of the test compounds to the enzyme before the start of the kinase reaction. Then the kinase reaction was started by the addition of 3 μl of a solution of adenosine-tri-phosphate (ATP, 16.7 μM=>final conc. in the 5 μl assay volume is 10 μM) and substrate (1.25 μM=>final conc. in the 5 μl assay volume is 0.75 μM) in assay buffer and the resulting mixture was incubated for a reaction time of 25 min at 22° C. The concentration of CDK2/CycE was adjusted depending of the activity of the enzyme lot and was chosen appropriate to have the assay in the linear range, typical concentrations were in the range of 130 ng/mL. The reaction was stopped by the addition of 5 μl of a solution of TR-FRET detection reagents (0.2 μM streptavidine-XL665 [Cisbio Bioassays, Codolet, France] and 1 nM anti-RB(pSer807/pSer811)-antibody from BD Pharmingen [#558389] and 1.2 nM LANCE EU-W1024 labeled anti-mouse IgG antibody [Perkin-Elmer, product no. AD0077]) in an aqueous EDTA-solution (100 mM EDTA, 0.2% (w/v) bovine serum albumin in 100 mM HEPES/NaOH pH 7.0).
The resulting mixture was incubated 1 h at 22° C. to allow the formation of complex between the phosphorylated biotinylated peptide and the detection reagents. Subsequently the amount of phosphorylated substrate was evaluated by measurement of the resonance energy transfer from the Eu-chelate to the streptavidine-XL. Therefore, the fluorescence emissions at 620 nm and 665 nm after excitation at 350 nm was measured in a TR-FRET reader, e.g. a Rubystar (BMG Labtechnologies, Offenburg, Germany) or a Viewlux (Perkin-Elmer). The ratio of the emissions at 665 nm and at […] was taken as the measure for the amount of phosphorylated substrate. The data were normalised (enzyme reaction without inhibitor=0% inhibition, all other assay components but no enzyme=100% inhibition).

[6] = system: HeLa-MaTu-ADR, multidrug-resistant human cervical carcinoma cells; assay: Proliferation assay, HeLa-MaTu-ADR (crystal violet); format: cell-based; conditions: 96 h, 4 days, read-out: Inhibition of HeLa-MaTu-ADR cell proliferation
Protocol: as §1

## CCc1cc(CS(C)(=N)=O)cc(Nc2cc(-c3ccc(F)c4ccoc34)c(F)cn2)n1 (racemic) [Example 8, (rac)-N-{6-Ethyl-4-[(S-methylsulfonimidoyl)methyl]pyridin-2-yl}-5-fluoro-4-(4-fluoro-1-benzofuran-7-yl)pyridin-2-amine]
[1]
  IC50: 0.032 µM
[2]
  IC50: 0.011 µM
[3]
  IC50: 0.035 µM
[4]
  IC50: 0.0076 µM
[5]
  IC50: 0.0094 µM
CDK2/CycE
  IC50: 0.014 µM
[6]
  IC50: 0.0088 µM

Source: patent US9770445B2, “Sulfoximine substituted 5-fluoro-N-(pyridin-2-yl)pyridin-2-amine derivatives and their use as CDK9 kinase inhibitors” (BAYER PHARMA AKTIENGESELLSCHAFT, priority 2013, dated 2017)
